Experimental data published in patent US7875647B2, “Heteroaryl-pyrazole derivatives as cannabinoid CB1 receptor antagonists” (Green Cross Corporation, priority 2006, dated 2011).

target: T1, Cannabinoid-1 receptor (CB1R) (Rattus norvegicus, UniProt P20272); experiment: Cannabinoid-1 receptor (CB1R) binding affinity assay ([3H]CP-55940, rat CB-1 receptor binding protocol); settings: IC50(nM), brain tissue of SD rats, [3H]CP-55940, 30° C. 60 min
T1 construct: The tissue obtained from the brain of SD rats was homogenized; from tissue; host or cells: brain of SD rats (membrane pellet of the homogenate)
T1 sequence (P20272 whole entry): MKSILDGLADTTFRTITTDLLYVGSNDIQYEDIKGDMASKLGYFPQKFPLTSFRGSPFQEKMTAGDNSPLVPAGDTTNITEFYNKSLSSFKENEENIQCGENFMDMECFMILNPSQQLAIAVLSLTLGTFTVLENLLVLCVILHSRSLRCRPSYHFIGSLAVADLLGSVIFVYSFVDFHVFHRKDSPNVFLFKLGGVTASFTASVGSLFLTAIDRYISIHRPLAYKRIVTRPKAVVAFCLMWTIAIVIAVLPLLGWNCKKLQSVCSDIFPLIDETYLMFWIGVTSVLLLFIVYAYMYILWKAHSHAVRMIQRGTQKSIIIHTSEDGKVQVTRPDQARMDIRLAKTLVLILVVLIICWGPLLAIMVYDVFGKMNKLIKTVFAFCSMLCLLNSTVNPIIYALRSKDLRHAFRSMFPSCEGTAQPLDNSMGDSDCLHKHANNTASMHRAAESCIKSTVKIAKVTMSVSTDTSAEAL

Q: Which IC50 does the source give for CCCCc1cnc(-c2nn(-c3ccc(Cl)cc3Cl)c(-c3ccc(Cl)cc3)c2C)o1 [Example 639, 5-butyl-2-(5-(4-chlorophenyl)-1-(2,4-dichlorophenyl)-4-methyl-1H-pyrazol-3-yl)oxazole] here?
A: 57.2 nM

Q: How did the IC50 turn out when Cc1c(-c2nc3c(o2)CCCC3)nn(-c2ccc(Cl)cc2Cl)c1-c1ccc(Cl)cc1 [Example 642, 2-(5-(4-chlorophenyl)-1-(2,4-dichlorophenyl)-4-methyl-1H-pyrazol-3-yl)-4,5,6,7-tetrahydrobenzo[d]oxazole] was run?
A: 44.2 nM

Q: With Cc1c(-c2ncc(C(C)(C)C)o2)nn(-c2ccc(Cl)cc2Cl)c1-c1ccc(Cl)cc1 [Example 644, 5-tert-butyl-2-(5-(4-chlorophenyl)-1-(2,4-dichlorophenyl)-4-methyl-1H-pyrazol-3-yl)oxazole] as the molecule, how does the IC50 read?
A: 14.2 nM

same assay, conditions: brain tissue of SD rats, [3H]CP-55940, 30° C. 60 min; read-out: IC50

Q: Which IC50 does the source give for Cc1c(-c2n[nH]c(C3CCCC3)n2)nn(-c2ccc(Cl)cc2Cl)c1-c1ccc(Cl)cc1 [Example 611, 3-(5-(4-Chlorophenyl)-1-(2,4-dichlorophenyl)-4-methyl-1H-pyrazol-3-yl)-5-cyclopentyl-1H-1,2,4-triazole] here?
A: 699 nM

Q: How did the IC50 turn out when Cc1c(-c2n[nH]c(C3CCCCC3)n2)nn(-c2ccc(Cl)cc2Cl)c1-c1ccc(Cl)cc1 [Example 612, 3-(5-(4-Chlorophenyl)-1-(2,4-dichlorophenyl)-4-methyl-1H-pyrazol-3-yl)-5-cyclohexyl-1H-1,2,4-triazole] was run?
A: 227 nM

Q: With Cc1c(-c2n[nH]c(-c3ccccc3)n2)nn(-c2ccc(Cl)cc2Cl)c1-c1ccc(Cl)cc1 [Example 613, 3-(5-(4-Chlorophenyl)-1-(2,4-dichlorophenyl)-4-methyl-1H-pyrazol-3-yl)-5-phenyl-1H-1,2,4-triazole] as the molecule, how does the IC50 read?
A: 476 nM

Q: Cc1c(-c2n[nH]c(-c3cccs3)n2)nn(-c2ccc(Cl)cc2Cl)c1-c1ccc(Cl)cc1 [Example 614, 3-(5-(4-Chlorophenyl)-1-(2,4-dichlorophenyl)-4-methyl-1H-pyrazol-3-yl)-5-(thiophen-2-yl)-1H-1,2,4-triazole] was tested. Which IC50 did it give?
A: 389 nM

Q: Which IC50 does the source give for Cc1c(-c2n[nH]c(C3CCCCCC3)n2)nn(-c2ccc(Cl)cc2Cl)c1-c1ccc(Cl)cc1 [Example 615, 3-(5-(4-chlorophenyl)-1-(2,4-dichlorophenyl)-4-methyl-1H-pyrazol-3-yl)-5-cycloheptyl-1H-1,2,4-triazole] here?
A: 625 nM

Q: Cc1c(-c2n[nH]c(-c3ccco3)n2)nn(-c2ccc(Cl)cc2Cl)c1-c1ccc(Cl)cc1 [Example 616, 3-(5-(4-chlorophenyl)-1-(2,4-dichlorophenyl)-4-methyl-1H-pyrazol-3-yl)-5-(furan-2-yl)-1H-1,2,4-triazole] was tested. Which IC50 did it give?
A: 534 nM

Q: Which IC50 does the source give for CCCc1nc(-c2nn(-c3ccc(Cl)cc3Cl)c(-c3ccc(Cl)cc3)c2C)n[nH]1 [Example 617, 3-(5-(4-chlorophenyl)-1-(2,4-dichlorophenyl)-4-methyl-1H-pyrazol-3-yl)-5-propyl-1H-1,2,4-triazole] here?
A: 523 nM

Q: Cc1c(-c2n[nH]c(C(C)C)n2)nn(-c2ccc(Cl)cc2Cl)c1-c1ccc(Cl)cc1 [Example 618, 3-(5-(4-chlorophenyl)-1-(2,4-dichlorophenyl)-4-methyl-1H-pyrazol-3-yl)-5-isopropyl-1H-1,2,4-triazole] was tested. Which IC50 did it give?
A: 142 nM

Q: How did the IC50 turn out when Cc1c(-c2n[nH]c(C3CC3)n2)nn(-c2ccc(Cl)cc2Cl)c1-c1ccc(Cl)cc1 [Example 619, 3-(5-(4-chlorophenyl)-1-(2,4-dichlorophenyl)-4-methyl-1H-pyrazol-3-yl)-5-cyclopropyl-1H-1,2,4-triazole] was run?
A: 128 nM

Q: Which IC50 does the source give for Cc1c(-c2n[nH]c(CC3CC3)n2)nn(-c2ccc(Cl)cc2Cl)c1-c1ccc(Cl)cc1 [Example 620, 3-(5-(4-chlorophenyl)-1-(2,4-dichlorophenyl)-4-methyl-1H-pyrazol-3-yl)-5-(cyclopropylmethyl)-1H-1,2,4-triazole] here?
A: 720 nM

Q: Which IC50 does the source give for Cc1c(-c2n[nH]c(C3CCC3)n2)nn(-c2ccc(Cl)cc2Cl)c1-c1ccc(Cl)cc1 [Example 621, 3-(5-(4-chlorophenyl)-1-(2,4-dichlorophenyl)-4-methyl-1H-pyrazol-3-yl)-5-cyclobutyl-1H-1,2,4-triazole] here?
A: 348 nM

Q: Which IC50 does the source give for CCC(C)c1nc(-c2nn(-c3ccc(Cl)cc3Cl)c(-c3ccc(Cl)cc3)c2C)n[nH]1 (stereo not shown) [Example 622, 5-sec-butyl-3-(5-(4-chlorophenyl)-1-(2,4-dichlorophenyl)-4-methyl-1H-pyrazol-3-yl)-1H-1,2,4-triazole] here?
A: 840 nM

Q: With Cc1c(-c2nc(C3CCCC3)n(C)n2)nn(-c2ccc(Cl)cc2Cl)c1-c1ccc(Cl)cc1 [Example 623, 3-(5-(4-chlorophenyl)-1-(2,4-dichlorophenyl)-4-methyl-1H-pyrazol-3-yl)-5-cyclopentyl-1-methyl-1H-1,2,4-triazole] as the molecule, how does the IC50 read?
A: 368 nM

Q: Cc1c(-c2nc(C3CCCCC3)n(C)n2)nn(-c2ccc(Cl)cc2Cl)c1-c1ccc(Cl)cc1 [Example 624, 3-(5-(4-chlorophenyl)-1-(2,4-dichlorophenyl)-4-methyl-1H-pyrazol-3-yl)-5-cyclohexyl-1-methyl-1H-1,2,4-triazole] was tested. Which IC50 did it give?
A: 388 nM

Q: For Cc1c(-c2nc(C3CC3)n(C)n2)nn(-c2ccc(Cl)cc2Cl)c1-c1ccc(Cl)cc1 [Example 628, 3-(5-(4-chlorophenyl)-1-(2,4-dichlorophenyl)-4-methyl-1H-pyrazol-3-yl)-5-cyclopropyl-1-methyl-1H-1,2,4-triazole], which IC50 is on record?
A: 904 nM

Q: With CCn1nc(-c2nn(-c3ccc(Cl)cc3Cl)c(-c3ccc(Cl)cc3)c2C)nc1C1CC1 [Example 629, 3-(5-(4-chlorophenyl)-1-(2,4-dichlorophenyl)-4-methyl-1H-pyrazol-3-yl)-5-cyclopropyl-1-ethyl-1H-1,2,4-triazole] as the molecule, how does the IC50 read?
A: 301 nM

Q: Cc1c(-c2nc(C3CC3)n(C(C)C)n2)nn(-c2ccc(Cl)cc2Cl)c1-c1ccc(Cl)cc1 [Example 630, 3-(5-(4-chlorophenyl)-1-(2,4-dichlorophenyl)-4-methyl-1H-pyrazol-3-yl)-5-cyclopropyl-1-isopropyl-1H-1,2,4-triazole] was tested. Which IC50 did it give?
A: 573 nM

Q: For CCC(C)c1nc(-c2nn(-c3ccc(Cl)cc3Cl)c(-c3ccc(Cl)cc3)c2C)nn1CC (stereo not shown) [Example 632, 5-sec-butyl-3-(5-(4-chlorophenyl)-1-(2,4-dichlorophenyl)-4-methyl-1H-pyrazol-3-yl)-1-ethyl-1H-1,2,4-triazole], which IC50 is on record?
A: 834 nM

Q: For CCC(C)c1nc(-c2nn(-c3ccc(Cl)cc3Cl)c(-c3ccc(Cl)cc3)c2C)nn1C(C)C (stereo not shown) [Example 633, 5-sec-butyl-3-(5-(4-chlorophenyl)-1-(2,4-dichlorophenyl)-4-methyl-1H-pyrazol-3-yl)-1-isopropyl-1H-1,2,4-triazole], which IC50 is on record?
A: 60.9 nM

Q: For Cc1c(-c2nc(C(C)C)n(C)n2)nn(-c2ccc(Cl)cc2Cl)c1-c1ccc(Cl)cc1 [Example 634, 3-(5-(4-chlorophenyl)-1-(2,4-dichlorophenyl)-4-methyl-1H-pyrazol-3-yl)-5-isopropyl-1-methyl-1H-1,2,4-triazole], which IC50 is on record?
A: 289 nM

Q: For CCn1nc(-c2nn(-c3ccc(Cl)cc3Cl)c(-c3ccc(Cl)cc3)c2C)nc1C(C)C [Example 635, 3-(5-(4-chlorophenyl)-1-(2,4-dichlorophenyl)-4-methyl-1H-pyrazol-3-yl)-5-isopropyl-1-ethyl-1H-1,2,4-triazole], which IC50 is on record?
A: 712 nM

Q: How did the IC50 turn out when Cc1c(-c2nc(C(C)C)n(C(C)C)n2)nn(-c2ccc(Cl)cc2Cl)c1-c1ccc(Cl)cc1 [Example 636, 3-(5-(4-chlorophenyl)-1-(2,4-dichlorophenyl)-4-methyl-1H-pyrazol-3-yl)-1,5-diisopropyl-1H-1,2,4-triazole] was run?
A: 851 nM

Q: With Cc1c(-c2ncc(C3CCCCC3)o2)nn(-c2ccc(Cl)cc2Cl)c1-c1ccc(Cl)cc1 [Example 638, 2-(5-(4-chlorophenyl)-1-(2,4-dichlorophenyl)-4-methyl-1H-pyrazol-3-yl)-5-cyclohexyloxazole] as the molecule, how does the IC50 read?
A: 93.9 nM

Q: Which IC50 does the source give for CCc1cnc(-c2nn(-c3ccc(Cl)cc3Cl)c(-c3ccc(Cl)cc3)c2C)o1 [Example 640, 2-(5-(4-chlorophenyl)-1-(2,4-dichlorophenyl)-4-methyl-1H-pyrazol-3-yl)-5-ethyloxazole] here?
A: 51.4 nM

Q: With Cc1c(-c2ncc(CC(C)C)o2)nn(-c2ccc(Cl)cc2Cl)c1-c1ccc(Cl)cc1 [Example 641, 2-(5-(4-chlorophenyl)-1-(2,4-dichlorophenyl)-4-methyl-1H-pyrazol-3-yl)-5-isobutyloxazole] as the molecule, how does the IC50 read?
A: 40.6 nM

Q: For Cc1c(-c2ncc(C3CCCC3)o2)nn(-c2ccc(Cl)cc2Cl)c1-c1ccc(Cl)cc1 [Example 643, 2-(5-(4-chlorophenyl)-1-(2,4-dichlorophenyl)-4-methyl-1H-pyrazol-3-yl)-5-cyclopentyloxazole], which IC50 is on record?
A: 65.5 nM

Q: Which IC50 does the source give for Cc1c(-c2ncc(CC(C)C)s2)nn(-c2ccc(Cl)cc2Cl)c1-c1ccc(Cl)cc1 [Example 646, 2-(5-(4-chlorophenyl)-1-(2,4-dichlorophenyl)-4-methyl-1H-pyrazol-3-yl)-5-isobutylthiazole] here?
A: 112 nM

Q: How did the IC50 turn out when Cc1c(-c2ncc(C3CCCC3)s2)nn(-c2ccc(Cl)cc2Cl)c1-c1ccc(Cl)cc1 [Example 648, 2-(5-(4-chlorophenyl)-1-(2,4-dichlorophenyl)-4-methyl-1H-pyrazol-3-yl)-5-cyclopentylthiazole] was run?
A: 69.4 nM

Q: With Cc1c(-c2ncc(C(C)(C)C)s2)nn(-c2ccc(Cl)cc2Cl)c1-c1ccc(Cl)cc1 [Example 649, 5-tert-butyl-2-(5-(4-chlorophenyl)-1-(2,4-dichlorophenyl)-4-methyl-1H-pyrazol-3-yl)thiazole] as the molecule, how does the IC50 read?
A: 12.7 nM

Q: Cc1c(-c2cc(C(C)(C)C)on2)nn(-c2ccc(Cl)cc2Cl)c1-c1ccc(Cl)cc1 [Example 650, 5-tert-butyl-3-(5-(4-chlorophenyl)-1-(2,4-dichlorophenyl)-4-methyl-1H-pyrazol-3-yl)isoxazole] was tested. Which IC50 did it give?
A: 84.1 nM

Q: Which IC50 does the source give for Cc1c(-c2cc(C(C)(C)C)no2)nn(-c2ccc(Cl)cc2Cl)c1-c1ccc(Cl)cc1 [Example 651, 3-tert-butyl-5-(5-(4-chlorophenyl)-1-(2,4-dichlorophenyl)-4-methyl-1H-pyrazol-3-yl)isoxazole] here?
A: 95.2 nM
